Measurements as given in patent publication US12130282B2, “Universal fluorescence assay of high affinity ligand transport” (priority 2018, dated 2024).
Where “and” joins values, the source holds several entries; their conditions need not be identical. Equal entries are not always repeated. Where two headings read alike, the source gives them in different places.

Key:
EcoFepA-FM = molecular target: T1, EcoFepA-FM (Escherichia coli, UniProt P05825, A720C); experiment: Fluorescence quenching binding of ferric catecholates to E. coli OKN13/pEcoFepA-FM; settings: summary of Table 2 for both KpnFepA-FM and EcoFepA-FM fluorescent sensors
T1 construct: expressed in transfected cells; host or cells: E. coli OKN13 (ΔtonB, ΔfepA), low-copy plasmid pHSG575 derivative
From the text: (§1) Affinity determinations by spectroscopic analyses The analytical capabilities of the fluorescence spectroscopic determinations stood out when we compared the recognition of FeEnt and its glucosylated form, FeGEnt (also known as ferric salmochelin), by EcoFepA and KpnFepA. The ability of Gram (−) pathogens, including K. pneumoniae, to glucosylate enterobactin and transport FeGEnt enhances their invasiveness, in part because glucosylation impairs recognition of the iron complex by lipocalins. Additionally, whereas E. coli K12 contains a single chromosomal fepA locus that encodes its FeEnt transporter, pathogenic K. pneumoniae contain at least three fepA orthologs (chromosomal loci 1658, 4984; plasmid PII locus 0027). IroN of Salmonella typhimurium has a role in FeGEnt uptake; its closest ortholog in K. pneumoniae is plasmid-mediated fepA0027. […]
(§2) Fluorescence modifications of Cys-mutant proteins. […]
(§3) Fluorescence spectroscopy. We observed fluorophore-labeled cells in an SLM AMINCO 8100 fluorescence spectrometer, upgraded with an OLIS operating system and software (OLIS SpectralWorks, OLIS Inc., Bogart, GA), to control its shutters, polarizers and data collection. We also utilized an OLIS Clarity fluorescence spectrometer for fluorescence assays of ferric catecholate binding.

K. pneumoniae Kp52.145 = experiment: FD sensor assay of FeEnt uptake rate by test strain (sensor OKN13/pEcoFepA-FM); assay type: cell-based
Method: FIG. 7. Uptake rates from FD assays. At t=60 s we added varying concentrations of FeEnt [(0.5 nM (green); 1 nM (yellow); 5 nM (orange); 10 nM (red)] to sensor strain OKN13/pEcoFepA-FM in the presence of test strain K. pneumoniae isolate Kp52.145. 10 nM FeEnt gave maximal quenching. For 1 and 5 nM FeEnt, at half-saturation (blue dashed line) we determined the slope of the time course (black dashed line) and the elapsed time (dashed red line). Either parameter estimated the transport rate of the test strain (see text).
Transport rates from spectroscopic analyses. The rate of fluorescence recovery in the spectroscopic system correlates to the rate of ligand depletion by bacterial transport, and comparisons of test strains in universal FD uptake assays reiterated this point. The various ESKAPE bacteria conferred fluorescence recovery at different rates (FIG. 3B). FeEnt binding at 100 s quenched the fluorescence of the FD sensor strain, E. coli OKN13/pEcoFepA-FM. […] But, the fluorescence of the E. coli strain reflected FeEnt uptake by other bacteria in the same solution: as they decreased [FeEnt] by cellular transport the intensity of OKN13/pEcoFepA-FM returned to initial levels (as described in FIG. 1B). The assay monitored FeEnt uptake by E. coli expressing chromosomal (Eco; cyan) or plasmid-mediated (Eco/pfepA+; blue) FepA, and ESKAPE species K. pneumoniae (Kpn; red), A. baumannii (Aba; gold), P. aeruginosa (Pae; green), E. cloacae (Ecl; magenta). […]
Species-specific fluorescence assay of FeEnt uptake: KpnFepA-FM. […] For species-specific ferric siderophore transport assays of Gram (−) bacteria we added an iron complex to 2×10^7 labeled cells in a quartz cuvette (final volume, 2 mL) with stirring at 37° C., and monitored the time course of fluorescence emissions at 520 nm. […] After addition of the ferric siderophore, we monitored the time-course of fluorescence emissions at 520 nm for 15-30 minutes, with stirring. […]

EcoFepA = molecular target: T2, EcoFepA (Escherichia coli, UniProt P05825); settings: read-out: Kd, previous determinations; cited from earlier work
T2 construct: expressed in transfected cells; host or cells: E. coli OKN3 (ΔfepA), plasmid pITS23 (pHSG575, ecofepA+)

[1] = tested on: chromosomally expressed FepA in E. coli; settings: cited from earlier work
[2] = tested on: KpnFepA-FM (KpnFepA0027_T210C); experiment: Fluorescence quenching binding of ferric catecholates to E. coli OKN13/pKpnFepA-FM; parameters: species or system K. pneumoniae; settings: adsorption to KpnFepA
From the text: as §1, §2, §3

LmoHbp2_S154C-CPM = experiment: Hemin titration of purified LmoHbp2-CPM, fluorescence quenching; assay type: binding, Listeria monocytogenes; settings: purified LmoHbp2-CPM 30 nM, 1-255 nM hemin, triplicate
Method: We substituted Cys for residue S154 in NEAT1 of LmoHbp2, expressed and purified the binding protein, and covalently modified it with coumarin maleimide (CPM). Introduction of Cys in NEAT-1 of LmoHbp2 allowed its modification by extrinsic fluorophores, transforming the purified binding protein into a sensitive sensor whose emissions inversely related to [Hn]. […] The experiment was performed in triplicate; the mean values, with standard deviations, are shown. […] When we mixed Hbp2-CPM with heterologous bacteria in solution, it reflected their hemin uptake. Addition of hemin at 300 s quenched LmoHbp2-CPM emissions, but fluorescence rebounded as bacteria {L. monocytogenes (Lmo; blue), B. subtilis (Bsu; gold), S. aureus (Sau; red), V. cholerae (Vch; green)} transported the porphyrin and depleted it from solution. […]
For fluorescence spectroscopic determinations of Gram (+) bacterial heme acquisition we used the FD sensor LmoHbp2_S154C-CPM. […] For measurements of Hn uptake by heterologous bacteria we suspended the LmoHbp2_S154C-CPM sensor protein at 30 nM in PBS+0.2% glucose in a 2 mL cuvette, added Hn to 15 nM after 300 s, and then added iron-starved bacterial cells at 600 s, to a final concentration of 5×10^7/mL, and monitored fluorescence for 2 h.

LmoHbp2 [3] = settings: read-out: Kd, isocalorimetric; cited from earlier work
LmoHbp2 [4] = settings: read-out: Kd, radioisotopic; cited from earlier work

T1 sequence (P05825 23-746 A720C): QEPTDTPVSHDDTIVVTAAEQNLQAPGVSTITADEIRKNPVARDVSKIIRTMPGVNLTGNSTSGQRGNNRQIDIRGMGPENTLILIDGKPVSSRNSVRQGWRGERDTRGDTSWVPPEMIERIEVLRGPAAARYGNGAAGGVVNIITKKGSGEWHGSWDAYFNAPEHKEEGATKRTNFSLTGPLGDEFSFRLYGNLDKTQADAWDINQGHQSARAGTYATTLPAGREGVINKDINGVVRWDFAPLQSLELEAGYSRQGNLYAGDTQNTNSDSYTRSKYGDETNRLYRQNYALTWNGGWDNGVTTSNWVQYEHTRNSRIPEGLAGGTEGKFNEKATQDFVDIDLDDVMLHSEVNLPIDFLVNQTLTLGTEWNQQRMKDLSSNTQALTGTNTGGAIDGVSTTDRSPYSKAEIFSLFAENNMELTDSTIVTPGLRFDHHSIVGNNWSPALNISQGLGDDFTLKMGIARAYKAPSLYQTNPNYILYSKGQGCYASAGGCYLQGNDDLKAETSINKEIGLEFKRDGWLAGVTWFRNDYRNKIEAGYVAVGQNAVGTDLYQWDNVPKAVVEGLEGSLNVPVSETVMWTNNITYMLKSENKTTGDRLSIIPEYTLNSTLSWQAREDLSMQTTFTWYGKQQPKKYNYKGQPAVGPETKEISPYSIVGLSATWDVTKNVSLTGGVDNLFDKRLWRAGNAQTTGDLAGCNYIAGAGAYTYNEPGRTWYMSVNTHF
T2 sequence (P05825 23-746): as the sequence (P05825 23-746 A720C) above, with C698A counted along it

Row | Compound | Kd (EcoFepA-FM) | time required to deplete 5 nM FeEnt to 0.38 nM (half-saturation) (K. pneumoniae Kp52.145; 10^7 cells/mL K. pneumoniae Kp52.145) | mean uptake rate over the first 520 s (K. pneumoniae Kp52.145; 10^7 cells/mL K. pneumoniae Kp52.145, 5 nM FeEnt) | Vmax (K. pneumoniae Kp52.145; K. pneumoniae Kp52.145, mean rate ÷ 0.8) | Kd (EcoFepA) | Vmax [1] | fold lower affinity than FeEnt [2] | Kd (LmoHbp2_S154C-CPM) | Kd (LmoHbp2 [3]) | Kd (LmoHbp2 [4])
1 | O=C(N[C@H]1COC(=O)[C@@H](NC(=O)c2cccc([O-])c2[O-])COC(=O)[C@@H](NC(=O)c2cccc([O-])c2[O-])COC1=O)c1cccc([O-])c1[O-].[Fe+3] [FeEnt, ferric enterobactin] | ~0.38 nM and 0.4 nM | 520 s | 53 pMol/10^9 cells/min | ≈ 66 pMol/10^9 cells/min | 0.2 to 0.5 nM | 50-100 pMol/min/10^9 cells | – | – | – | –
2 | O=C(N[C@H]1COC(=O)[C@@H](NC(=O)c2cc([C@@H]3O[C@H](CO)[C@@H](O)[C@H](O)[C@H]3O)cc(O)c2O)COC(=O)[C@@H](NC(=O)c2cc([C@@H]3O[C@H](CO)[C@@H](O)[C@H](O)[C@H]3O)cc(O)c2O)COC1=O)c1cccc(O)c1O.[Fe+3] [FeGEnt, ferric salmochelin] | 6 to 280 nM | – | – | – | – | – | 20 fold | – | – | –
3 | hemin | – | – | – | – | – | – | – | 12 ± 3.1 nM | 25 to 48 nM | 12 nM
